This passage reports EC50 results from BindingDB's records for patent US20240101531 (Xenon Pharmaceuticals, 2024).

For this experiment, the target named is Potassium voltage-gated channel subfamily KQT member 2/3 (Homo sapiens, UniProt O43525+O43526). Nature of the experiment: In Vitro Assay. The text has this: This potassium flux assay employs the cell-permeable, potassium-sensitive dye, IPG-2 AM, to quantify potassium ion flux through potassium channels.In general, TREX HEK 293 or HEK 293 cells were stably transfected with either an inducible or non-inducible expression vector containing the full-length cDNA coding for the desired human KV7.2/KV7.3 or in combination with another full-length cDNA for a second desired human KV7 potassium channel. Potassium channel-expressing cell lines were induced with tetracycline (1 g/mL), if required, and plated on 384-well poly-D-lysine (PDL)-coated plates in culture media (DMEM, containing 10% FBS and 1% L-glutamine). After overnight incubation, culture media was removed and cells were loaded with 5 M IPG-2 AM dye for 1 hour in Assay buffer (140 mM NaCl, 20 mM RbCl, 2 mM CaCl2, 1 mM MgCl2, 10 mM HEPES (4-(2-hydroxyethyl)-1-piperazineethanesulfonic acid buffer), 10 mM glucose, adjusted with Tris to pH 7.4). Excess dye was removed, and cells incubated at room temperature for 20 minutes with or without test compound. […]
Potassium voltage-gated channel subfamily KQT member 2/3, sequence (O43526 whole entry): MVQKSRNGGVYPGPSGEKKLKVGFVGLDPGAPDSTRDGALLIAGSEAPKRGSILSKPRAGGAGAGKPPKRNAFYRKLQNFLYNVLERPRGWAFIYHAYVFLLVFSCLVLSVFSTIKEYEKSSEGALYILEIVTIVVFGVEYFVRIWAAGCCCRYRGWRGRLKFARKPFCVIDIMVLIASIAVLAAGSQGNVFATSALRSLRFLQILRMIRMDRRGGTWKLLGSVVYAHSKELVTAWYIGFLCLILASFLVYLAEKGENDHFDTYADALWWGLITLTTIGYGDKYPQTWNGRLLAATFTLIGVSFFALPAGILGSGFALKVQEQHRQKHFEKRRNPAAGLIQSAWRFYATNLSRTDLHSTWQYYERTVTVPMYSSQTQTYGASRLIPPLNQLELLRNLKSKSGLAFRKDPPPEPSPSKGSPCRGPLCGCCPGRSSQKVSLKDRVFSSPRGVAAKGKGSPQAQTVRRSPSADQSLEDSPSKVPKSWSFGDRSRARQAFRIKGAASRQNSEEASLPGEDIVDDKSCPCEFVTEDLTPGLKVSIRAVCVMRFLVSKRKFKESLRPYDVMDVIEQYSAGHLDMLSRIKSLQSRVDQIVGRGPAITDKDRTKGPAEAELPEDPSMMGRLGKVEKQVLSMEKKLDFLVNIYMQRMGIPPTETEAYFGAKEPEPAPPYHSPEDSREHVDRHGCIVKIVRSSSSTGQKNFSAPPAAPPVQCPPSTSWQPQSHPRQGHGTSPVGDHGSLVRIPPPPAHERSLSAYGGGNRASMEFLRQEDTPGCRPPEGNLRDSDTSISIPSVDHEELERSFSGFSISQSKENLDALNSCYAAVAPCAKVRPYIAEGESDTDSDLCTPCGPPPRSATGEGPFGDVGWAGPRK
Potassium voltage-gated channel subfamily KQT member 2/3, sequence (O43525 whole entry): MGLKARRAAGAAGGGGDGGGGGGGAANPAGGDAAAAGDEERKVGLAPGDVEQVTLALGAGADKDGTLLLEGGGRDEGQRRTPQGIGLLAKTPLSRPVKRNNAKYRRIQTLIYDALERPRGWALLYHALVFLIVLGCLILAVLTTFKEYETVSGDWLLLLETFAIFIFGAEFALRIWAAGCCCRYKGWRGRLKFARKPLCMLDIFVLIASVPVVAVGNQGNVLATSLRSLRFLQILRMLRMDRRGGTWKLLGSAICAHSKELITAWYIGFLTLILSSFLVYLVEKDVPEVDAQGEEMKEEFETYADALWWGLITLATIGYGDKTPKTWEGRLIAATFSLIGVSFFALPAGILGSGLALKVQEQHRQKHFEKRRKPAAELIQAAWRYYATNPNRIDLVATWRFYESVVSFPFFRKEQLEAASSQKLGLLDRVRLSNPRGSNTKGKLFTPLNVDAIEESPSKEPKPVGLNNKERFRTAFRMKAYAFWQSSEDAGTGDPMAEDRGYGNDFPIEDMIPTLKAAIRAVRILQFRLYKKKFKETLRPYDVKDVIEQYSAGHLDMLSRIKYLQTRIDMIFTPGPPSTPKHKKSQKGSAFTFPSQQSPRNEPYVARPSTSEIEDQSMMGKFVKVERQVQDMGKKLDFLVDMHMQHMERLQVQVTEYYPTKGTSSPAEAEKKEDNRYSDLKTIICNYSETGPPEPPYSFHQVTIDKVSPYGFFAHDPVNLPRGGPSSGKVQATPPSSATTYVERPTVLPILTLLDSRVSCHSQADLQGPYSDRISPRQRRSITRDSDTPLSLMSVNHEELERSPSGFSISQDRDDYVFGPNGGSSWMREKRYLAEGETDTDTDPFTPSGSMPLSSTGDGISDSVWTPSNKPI

The structures appear in SMILES notation.

Turning to `CC1(C)CC1(C#N)COc1ccc2c(Nc3ccc(Cl)nc3)nccc2c1` (stereo unspecified) [US20240101531, Example 330], the EC50 was less than 1000 nM.

Usually EC50 stands for the concentration needed to bring the measured effect to its halfway point.
